From article PMC5155426, “Organic Redox Species in Aqueous Flow Batteries: Redox Potentials, Chemical Stability and Solubility” (Scientific Reports, 2016)
Converted amounts (≈) assume the structure as drawn. “And” between values parts separate entries of the source, which are not always exact repeats. Identical values can stand only once.

Experiments:
[1] = Cyclic voltammetry: formal redox potential, peak current ratio, electrochemical reversibility; type: physicochemical; settings: for formal redox potential E0': midpoint of CV peak potentials; for pH dependence (slope) of E0': pH 0 to pH 13; for change of E0' from acidic (pH 0) to alkaline (pH 13): 13 pH units
Description: The investigated compounds were used as-purchased and without any purification. […] For each series of CVs, a freshly polished electrode was used. The CVs for soluble compounds in 1 mM concentration were recorded in a glass beaker with a customized lid in nitrogen purged solutions of three different pHs, namely pH 0 (1 M H2SO4), pH 7 (0.5 M phosphate buffer) and pH 13 (1 M NaOH). The pH of the NaOH solution is taken as 13 to account for carbonization of the solution with exposure to air. A background CV was recorded before each CV experiment to exclude background contaminations. The CVs of insoluble compounds in 1 M H2SO4, or 0.5 M phosphate buffer were recorded as follows: 6 mL of the supporting electrolyte was mixed with approximately 4 mL of acetone, and then a small amount of the quinone was added so that its concentration was around 1 mM.
Each CV was analyzed in terms of peak potentials and peak currents. Peak currents were determined by subtracting a polynomial fit of the background from the recorded current as exemplified in Supplementary, S1. A plot of the absolute values of the peak currents to the square root of the scan rate was constructed and, when reasonable, a linear fit included to evaluate the electrochemical (Nernstian) reversibility of the electrochemical reaction. The peak current Ip for reversible reactions are given by equation (1).
Where F is the Faraday constant, R the gas constant, T the temperature, n the number of electron transferred, A the area of the electrode, DOthe diffusion coefficient and CO^*the bulk concentration of the analyte and v the scan rate. The peak current ratio is expected to be close to one for reversible species. The formal redox potential (E^0’), which is the adjusted form of the standard redox potential, where effects of the medium is taken into account, is reported here as the midpoint potential between the two peak potentials in the CV[24]. All half-cell potentials in this work refer to the normal hydrogen electrode (VNHE).

[2] = Aqueous solubility estimation (OECD test #105) in 1 M supporting electrolytes
Description: After each addition the test tube was ultrasonicated and/or shaken vigorously using a Vortex Generator for at least 10 minutes at room temperature. Then the tube was inspected visually for undissolved sample and the addition of supporting electrolyte solution continued until the sample seemed just dissolved. The volumes just before and after full dissolution are used for calculating the solubility interval (Supplementary, S4 and S5) and the solubility is estimated as the average between the two.

[3] = 1 M H2SO4 supporting electrolyte prepared from MilliQ water, aqueous buffer, thermodynamic from solid, Solubility, 1 M H2SO4, room temperature, interval just after / before full dissolution
[4] = 1 M KCl supporting electrolyte prepared from MilliQ water, saline or isotonic, thermodynamic from solid, Solubility, 1 M KCl, room temperature
[5] = pH 0 (1 M H2SO4), about 1 mM, acetone added for insoluble compounds
[6] = 1 M KOH supporting electrolyte prepared from MilliQ water, aqueous buffer, thermodynamic from solid, Solubility, 1 M KOH, room temperature
[7] = water / supporting electrolytes as worded
[8] = aqueous buffer, thermodynamic from solid, Solubility
[9] = saline or isotonic, thermodynamic from solid, Solubility

| Electrochemical reversibility ([1]; pH 13) | Peak current ratio ([1]; pH 13) | solubility [2, 3] [mM] | solubility [2, 4] [mM] | formal redox potential E0' [1, 5] | Electrochemical reversibility ([1]; pH not specified) | formal redox potential E0' ([1]; pH 7 (0.5 M phosphate buffer)) | formal redox potential E0' ([1]; pH 13 (1 M NaOH)) | Peak current ratio ([1]; pH 0) | Peak current ratio ([1]; pH 7) | solubility [2, 6] [mM] | Structure (SMILES) | other results |
| --- | --- | --- | --- | --- | --- | --- | --- | --- | --- | --- | --- | --- |
| Quasireversible | 0.79(9) | < 10 | < 10 |  |  |  |  |  |  |  | O=C1c2cccc(O)c2C(=O)c2cccc(O)c21 [AQDH(1,5), 1,5-dihydroxy-9,10-anthraquinone] |  |
|  |  |  |  | 0.14(4) VNHE | Quasireversible |  |  |  |  |  | Nc1c(S(=O)(=O)[O-])cc(Br)c2c1C(=O)c1ccccc1C2=O.[Na+] [AQS(2)NBr, 1-amino-4-bromo-9,10-anthraquinone-2-sulfonate sodium] |  |
| Reversible | 0.96(6) | < 10 | < 10 | -0.084(5) VNHE |  | -0.414(3) VNHE | -0.69(1) VNHE |  |  |  | O=C1c2ccc(O)c(O)c2C(=O)c2c(O)ccc(O)c21 [AQTH(1,2), 1,2,5,8-tetrahydroxy-9,10-anthraquinone] |  |
| Reversible | 1.2(1) | < 10 | < 10 | 0.200(4) VNHE |  |  |  |  |  |  | O=C1c2c(O)ccc(O)c2C(=O)c2c(O)ccc(O)c21 [AQTH(1,4), 1,4,5,8-tetrahydroxy-9,10-anthraquinone] | E0' more negative compared to AQDH(1,4) ([1]; alkaline): approximately 100 mV; solubility compared to AQDH(1,4) ([2]; alkaline): only half the solubility |
|  | 0.8(1) | < 10 | < 10 | 0.382(4) VNHE and 0.38 VNHE | Quasireversible |  |  | 0.87(4) | 1.1(2) |  | O=C1C=C(O)C(=O)C=C1O [BQ(1,4)DH, 2,5-dihydroxy-1,4-benzoquinone] | reduction of E0' compared to the parent BQ compound ([1]; pH 0): 300 mV; pH dependence (slope) of E0' [1]: ~−90 mV/pH unit |
| Quasireversble | 0.8(2) | < 10 | 10 (≈ 2090 µg/mL) | 0.394(1) VNHE |  |  |  | 1.3(1) | 1.2(4) | < 10 | O=C1C(O)=C(Cl)C(=O)C(O)=C1Cl [BQ(1,4)DHDCl, 2,5-dichloro-3,6-1,4-benzoquinone] | change of E0' from acidic (pH 0) to alkaline (pH 13) [1]: 0.99 V; Electrochemical reversibility ([1]; pH 0): Reversible; pH dependence (slope) of E0' [1]: −76 mV/pH unit; Electrochemical reversibility ([1]; pH 7): Quasireversble; aqueous solubility, qualitative [2, 7]: insoluble in water |
| Irreversible |  |  |  |  |  |  |  |  |  |  | Oc1ccccc1O [HQ(1,2), Ortho hydroquinone] | Electrochemical reversibility ([1]; pH 0): Quasireversible; Electrochemical reversibility ([1]; pH 7): Quasireversible |
|  |  |  |  | 0.86(3) VNHE | Quasireversible | 0.7 VNHE |  | 0.4(1) |  |  | O=S(=O)(O)c1cc(O)c(O)c(S(=O)(=O)O)c1 [HQ(1,2)DS, 4,5-dihydroxy-1,3-benzenedisulfonate disodium monohydrate] | reduction/oxidation peak ratio ([1]; all pH values): significantly low; increase of E0' relative to ortho-BQ ([1]; two sulfonate groups): 50 mV |
|  |  |  |  | 0.669(5) VNHE |  | 0.433(7) VNHE | 0.11(1) VNHE | 2.3(1) | 1.2(3) |  | Oc1ccc(O)cc1 [HQ(1,4), Para hydroquinone] | Electrochemical reversibility ([1]; pH 0): Quasireversible; Electrochemical reversibility ([1]; pH 7): Quasireversible |
|  | 0.2(1) |  | 10 (≈ 1820 µg/mL) | 0.707(4) VNHE | Quasireversible | 0.23(7) VNHE | -0.05(6) VNHE | 0.5(1) | 0.21(7) |  | Oc1c(F)c(F)c(O)c(F)c1F [HQ(1,4)TF, 1,2,4,5-tetrafluoro-3,6-dihydroxybenzene] |  |
|  | 0.9(1) |  | ~10 | 0.55(1) VNHE | Quasireversible | 0.24(1) VNHE |  | 0.8(1) | 0.52(3) | 900 | O=C1C=C(S(=O)(=O)O)c2ccccc2C1=O [NQ(1,2)S, 1,2-naphtoquinone-4-sulfonate sodium] |  |
|  |  | < 10 | < 10 |  | electrochemically irreversible |  | ≈ 0.4 VNHE |  |  | < 10 | O=C1C(Cl)=C(Cl)C(=O)c2c(O)ccc(O)c21 [NQ(1,4)DHDCl, 2,3-dichloro-5,8-dihydroxy-1,4-naphtoquinone] | aqueous solubility, qualitative [2, 7]: insoluble in water |
| seemingly reversible | 0.73(6) | < 10 | < 10 | 0.308(4) VNHE | Quasireversible |  |  | 0.81(8) | 1.2(3) | 820 (≈ 143000 µg/mL) | O=C1C=C(O)C(=O)c2ccccc21 [NQ(1,4)H, 2-hydroxy-1,4-naphtoquinone] | change of E0' from acidic (pH 0) to alkaline (pH 13) [1]: 0.8 V; pH dependence (slope) of E0' [1]: 67 mV/pH unit |
|  |  |  |  | 0.403(3) VNHE |  | Unstable | Unstable |  |  |  | c1ccc2nc3ccccc3nc2c1 [Phenazine] | solubility [2]: < 10 mM; solubility [2, 8]: 10 mM (≈ 1800 µg/mL); solubility [2, 9]: < 10 mM |
|  |  | ~7000 (≈ 561000 µg/mL) | ~7000 (≈ 561000 µg/mL) | -0.013(2) VNHE |  | Unstable | Unstable |  |  | ~7000 (≈ 561000 µg/mL) | c1cnccn1 [Pyrazine, 1,4-diazine] |  |

| Structure (SMILES) | Electrochemical reversibility ([1]; pH 13) | Peak current ratio ([1]; pH 13) | solubility [2, 3] [mM] | solubility [2, 4] [mM] | formal redox potential E0' [1, 5] | Electrochemical reversibility ([1]; pH not specified) | formal redox potential E0' ([1]; pH 7 (0.5 M phosphate buffer)) | formal redox potential E0' ([1]; pH 13 (1 M NaOH)) | Peak current ratio ([1]; pH 0) | Peak current ratio ([1]; pH 7) | solubility [2, 6] [mM] | other results |
| --- | --- | --- | --- | --- | --- | --- | --- | --- | --- | --- | --- | --- |
| Cc1cc(O)c2c(c1)C(=O)c1cc(O)cc(O)c1C2=O [AQTrHM, 1,3,8-trihydroxy-6-methylanthracene-9,10-dione] |  | 0.2(2) | < 10 | < 10 | -0.04(1) VNHE | Reversible | -0.386(2) VNHE | -0.63(1) VNHE | 0.15(4) | 0.19(6) |  |  |
| O=C1C(O)=C(O)C(=O)C(O)=C1O [BQ(1,4)TH, Tetrahydroxy-1,4-benzoquinone] | Quasireversible |  | < 10 | < 10 | 0.28 VNHE | completely loses its electrochemical activity |  |  |  |  | < 10 | Electrochemical reversibility ([1]; pH 6.2): Quasireversible |
| O=S(=O)([O-])c1cc(O)ccc1O.[K+] [HQ(1,4)S, 2,5-dihydroxybenzenesulfonate potassium] |  |  |  |  | 0.664(8) VNHE | Quasireversible | 0.471(4) VNHE | -0.07(1) VNHE |  |  |  |  |
| Oc1c(Cl)c(Cl)c(O)c(Cl)c1Cl [HQ(1,4)TCl, Tetrachloro hydroquinone] |  |  |  |  | 0.70(1) VNHE | Quasireversible | 0.277(1) VNHE | 0.08(1) VNHE | 0.72(5) | 1.1(2) |  | aqueous solubility, qualitative [2]: insoluble in water; solubility [2]: < 10 mM; solubility [2, 8]: < 10 mM; solubility [2, 9]: < 10 mM |
| CC(C)=CCC1=C(O)C(=O)c2ccccc2C1=O [NQ(1,4)HB, 2-hydroxy-3-(3-methyl-2-butenyl)-1,4-naphthoquinone] | Quasireversible | 0.38(4) | < 10 | < 10 | 0.333(3) VNHE |  |  |  |  | 1.08(5) | 700 (≈ 170000 µg/mL) | change of E0' from acidic (pH 0) to alkaline (pH 13) [1]: 0.8 V; Electrochemical reversibility ([1]; pH 0): Quasireversible; pH dependence (slope) of E0' [1]: 67 mV/pH unit; Electrochemical reversibility ([1]; pH 7): Reversible |
| O=C1C=CC(=O)C=C1 [para-BQ] |  |  |  |  |  |  |  | 0.11 VNHE |  |  |  | pH dependence (slope) of E0' [1]: −45 mV/pH unit |
